Values after ≈ are worked out from the molar mass of the structure shown.
How the values were obtained:
[1] = test system: MDA-MB-231 human breast cancer cells; experiment: wound closure assay (cell migration); assay type: cell-based; details: for effect on wound closure or cytotoxicity in the screen: 24 hours after wounding
Description: In the wound closure assay, MDA-MB-231 cells (American Type Culture Collection number: HTB-26) were cultured in 75 cm^2 tissue culture flasks with growth medium (DMEM containing 10% fetal bovine serum) at 37° C. under 5% CO2 in a humidified tissue culture incubator. The cells were grown to 80% confluence and then treated with trypsin, collected, and replated in 96-well tissue culture plates for initial screening. Once confluent, the cell cultures were treated with compounds at various concentrations or with DMSO carrier solvent alone with fresh growth medium. In all cases, the final DMSO concentration was 0.05%. After 30 minutes, the cell cultures were wounded with a sterile micropipette tip, and the wound closure experiments were performed essentially as described previously.
Cell monolayers in 24-well tissue culture plates were treated with different concentrations of each compound 30 minutes before wounding and then wounded, as described above.
Digital images of the wounds were captured immediately after wounding and at 3 h, 6 h, 9 h, 12 h, and 24 hours post-wounding. The open wound areas, as a function of time after wounding, were determined with NIH Image J software to establish the mean percent wound closure over time for each treatment and parallel controls, as previously described. The mean percent wound closure values at 9 hours post-wounding for all concentrations up to the maximal subtoxic concentration were subjected to nonlinear regression to calculate IC50 values and 95% confidence intervals for inhibition of wound closure.
The Minimum Inhibitory Concentration (MIC) column of Table 1 represents the lowest concentration tested at which there was statistically significant inhibitory activity in the wound closure assay as determined by unpaired, two-tailed Student's t-tests (P<0.05).
Half-maximal inhibitory concentration (IC50) values shown in Table 1 were calculated for inhibition of wound closure at 9 hours post-wounding from concentration—response profiles for a range of subtoxic concentrations (n=7−9 wounds from three independent experiments).

MDA-MB-231 cells [2] = experiment: tetrazolium salt-based cell proliferation and viability assay (CCK-8); set-up: species or system human; details: 48 hours
Description: Compounds 90, 92 and 94 were also evaluated in a tetrazolium salt-based cell proliferation and viability assay.
The cell proliferation and cell viability assay was conducted according to the manufacturer's instructions (CCK-8; Dojindo Molecular Technologies). MDA-MB-231 cells were plated in 96-well tissue culture plates ([…] per well of a 4×10^4 cells per mL suspension in growth medium) and incubated for 24 hours at 37° C. under 5% CO2. The cells were then treated with the tested compounds at various concentrations or with DMSO alone. In all cases, the final DMSO concentration was 0.05%. At the same time, other cells from parallel plates were analyzed using the CCK-8 assay to establish the cell density at the start of the experiment. After 48 hours of incubation, the cell numbers for the experimental samples were determined and compared with the initial cell numbers.

[3] = test system: MDA-MB-231 human breast cancer cells; experiment: trypan blue dye exclusion assay at the end of wound closure experiments; assay type: cell-based; details: lowest concentration tested with statistically significant cell death by the end of wound closure experiments
Description: Compounds were first screened at 50 μm and evaluated for their antimigratory activity and cytotoxicity. This was accomplished by scoring wounds as opened or closed as a function of time following wounding to determine the time to closure. Cell viability was determined by the trypan blue dye exclusion assay conducted at the end of each experiment, with the ratio of dye-non-excluding (dead) to dye-excluding (live) cells compared with the control, described in greater detail in Example 7.
Minimum lethal concentration (MLC) represents the lowest concentration tested at which there was statistically significant cell death, measured using the trypan blue dye exclusion assay, by the end of wound closure experiments. The minimum lethal concentration (MLC) for compound 94 under the conditions of the cell invasion assay was 50 μm. In the cell invasion assay, cells were at a lower density than in the wound closure assay, and compounds were added at the same time as the cells, rather than after attachment and growth.

MDA-MB-231 cells [4] = experiment: cell invasion assay through Matrigel in transwell chambers; assay type: cell-based, human; details: subtoxic concentrations, 24 hours
Description: Cell migration is a necessary condition for the metastasis of solid tumors. A major determinant of the metastatic potential of a cancer cell is its ability to invade through extracellular matrix barriers. Therefore, compounds 90, 92 and 94 were tested for their activities using a cell invasion assay.
Compounds 90, 92, and 94 were analyzed for their ability to inhibit the invasion of cells through Matrigel in a cell invasion assay. The assay was performed in transwell chambers according to the manufacturer's instructions (BD Biosciences). The polycarbonate membranes (8 μm pore size) of the upper chambers were coated with Matrigel (25 μg). Growth medium containing the tested compound or DMSO alone was added to the lower chambers ([…] per well in 24-well BD Falcon TC companion plates). […] After removing noninvaded cells from the upper surface of the membrane with a cotton swab, the invaded cells on the lower surface were fixed with MeOH, stained with crystal violet solution, rinsed with water, air-dried, and then counted by using an inverted microscope. In parallel experiments, cell viability, determined using the trypan blue dye exclusion assay at various concentrations of the tested compounds, was evaluated under the conditions of the cell invasion assay.

cell migration = details: natural product comparator; read-out: IC50 (inhibition of cell migration); cited from earlier work

| SMILES | effect on wound closure or cytotoxicity in the screen ([1]; 2 μm) | effect on wound closure or cytotoxicity in the screen ([1]; 10 μm) | effect on wound closure or cytotoxicity in the screen ([1]; 50 μm) | IC50 ([1]; Homo sapiens, MDA-MB-231, 9 hours post-wounding, subtoxic concentrations, n=7-9 wounds from three independent experiments, read-out: IC50 (inhibition of wound closure)) | MIC (minimum inhibitory concentration, wound closure) ([1]; lowest concentration tested with statistically significant inhibitory activity (P<0.05)) | antimigratory activity in the wound closure assay ([1]; subtoxic concentrations) | inhibition of cell growth (MDA-MB-231 cells [2]; concentrations that inhibit migration and invasion) | cytotoxicity (MDA-MB-231 cells [2]; higher concentrations) | MLC (minimum lethal concentration) [3] | activity against cell invasion (MDA-MB-231 cells [4]) | IC50 (cell migration) |
| --- | --- | --- | --- | --- | --- | --- | --- | --- | --- | --- | --- |
| CCOc1cc2c(c3c1C(c1ccccc1)N(S(=O)(=O)c1ccc(C)cc1)C3)C(=O)C=CC2=O (centres unmarked) [Compound 92] | inactive | inhibit wound closure or were cytotoxic | inhibit wound closure or were cytotoxic | 14.8 µM | 5 µM (≈ 2.37 µg/mL) | exhibited subtoxic antimigratory activity | did not inhibit cell growth | become cytotoxic at higher concentrations over a very narrow range | 50 µM (≈ 23.7 µg/mL) | inhibit cell migration and invasion at subtoxic concentrations | – |
| CO[C@H]1/C=C/CC/C=C/C(=O)O[C@H]([C@H](C)C(=O)CCCC2CC(=O)NC(=O)C2)/C(C)=C\[C@@H](C)[C@@H]1O [migrastatin] | – | – | – | – | – | – | – | – | – | – | 29 µM |

Reference: patent US8624032B2, “Compound libraries made through phosphine-catalyzed annulation/Tebbe/Diels-Alder reactions” (The Regents of the University of California, priority 2011, dated 2014)
